Patent US11820766B2, “Monoacylglycerol lipase modulators” (Janssen Pharmaceutica NV, priority 2018, dated 2023)

Molecular target: T1, human MGL from HeLa cells (Homo sapiens, UniProt Q99685)
T1 construct: combining endogenously expressed MGL from HeLa cells with test compounds; endogenous in cells; host or cells: HeLa cells / cell homogenates
T1 sequence (Q99685 1-303): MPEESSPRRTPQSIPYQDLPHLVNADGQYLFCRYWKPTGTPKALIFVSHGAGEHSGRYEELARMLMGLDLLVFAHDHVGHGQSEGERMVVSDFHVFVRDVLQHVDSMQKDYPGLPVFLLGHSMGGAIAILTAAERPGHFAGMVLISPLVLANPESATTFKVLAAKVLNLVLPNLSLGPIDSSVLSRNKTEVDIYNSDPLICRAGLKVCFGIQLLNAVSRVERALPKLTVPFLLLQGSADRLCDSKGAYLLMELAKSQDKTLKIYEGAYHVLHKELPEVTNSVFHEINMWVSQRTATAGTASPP
Experiment: In vitro MGL activity assay: [glycerol-1,3-3H]-oleyl glycerol cleavage by MGL from HeLa cells
Type: biochemical
Settings: 300 nM [Glycerol-1,3-3H]-oleyl glycerol, one hour
From the text: MGL is the predominant hydrolase in HeLa cells/cell homogenates.

In order of falling IC50:
1. Cc1cc(C(=O)N2CCc3c(nn(C)c3-c3cc(F)c(F)c(F)c3)[C@@H]2C)n2ncnc2n1 [Example 472, [(7S)-2,7-Dimethyl-3-(3,4,5-trifluorophenyl)-5,7-dihydro-4H-pyrazolo[3,4-c]pyridin-6-yl]-(5-methyl-[1,2,4]triazolo[1,5-a]pyrimidin-7-yl)methanone]  1560 nM
2. C[C@H]1c2nn(C)c(-c3cc(F)c(F)c(F)c3)c2CCN1C(=O)c1nccc2cc[nH]c12 [Example 376, [(7S)-2,7-Dimethyl-3-(3,4,5-trifluorophenyl)-5,7-dihydro-4H-pyrazolo[3,4-c]pyridin-6-yl]-(1H-pyrrolo[2,3-c]pyridin-7-yl)methanone]  599 nM
3. C[C@H]1c2nn(C)c(-c3ccc(F)cc3Cl)c2CCN1C(=O)c1ccc2ncccc2c1 [Example 506, [(7S)-3-(2-Chloro-4-fluoro-phenyl)-2,7-dimethyl-5,7-dihydro-4H-pyrazolo[3,4-c]pyridin-6-yl]-(6-quinolyl)methanone]  347 nM
4. C[C@H]1c2nn(C)c(-c3cc(F)c(F)c(F)c3)c2CCN1C(=O)c1nccc2cn[nH]c12 [Example 432, [(7S)-2,7-Dimethyl-3-(3,4,5-trifluorophenyl)-5,7-dihydro-4H-pyrazolo[3,4-c]pyridin-6-yl]-(1H-pyrazolo[3,4-c]pyridin-7-yl)methanone]  274 nM
5. C[C@H]1c2nn(C)c(-c3cc(F)c(F)c(F)c3)c2CCN1C(=O)c1ccnc2ncccc12 [Example 491, [(7S)-2,7-Dimethyl-3-(3,4,5-trifluorophenyl)-5,7-dihydro-4H-pyrazolo[3,4-c]pyridin-6-yl]-(1,8-naphthyridin-4-yl)methanone]  141 nM
6. COc1nccc(C(=O)N2CCc3c(nn(C)c3-c3ccc(F)c(OC(F)F)c3)[C@@H]2C)c1C [Example 595, [(7S)-3-[3-(Difluoromethoxy)-4-fluoro-phenyl]-2,7-dimethyl-5,7-dihydro-4H-pyrazolo[3,4-c]pyridin-6-yl]-(2-methoxy-3-methyl-4-pyridyl)methanone]  106 nM
7. C[C@H]1c2nn(C)c(-c3cccc(OC(F)F)c3)c2CCN1C(=O)c1ccc2ncccc2c1 [Example 499, [(7S)-3-[3-(Difluoromethoxy)phenyl]-2,7-dimethyl-5,7-dihydro-4H-pyrazolo[3,4-c]pyridin-6-yl]-(6-quinolyl)methanone]  44.4 nM
8. Cc1nn2ncccc2c1C(=O)N1CCc2c(nn(C)c2-c2cc(F)c(F)c(F)c2)[C@@H]1C [Example 442, [(7S)-2,7-Dimethyl-3-(3,4,5-trifluorophenyl)-5,7-dihydro-4H-pyrazolo[3,4-c]pyridin-6-yl]-(2-methylpyrazolo[1,5-b]pyridazin-3-yl) methanone]  43.9 nM
9. COc1ccnc(C(=O)N2CCc3c(nn(C)c3-c3cc(F)cc(OC(F)F)c3)[C@@H]2C)c1Cl [Example 612, (3-Chloro-4-methoxy-2-pyridyl)-[(7S)-3-[3-(difluoromethoxy)-5-fluoro-phenyl]-2,7-dimethyl-5,7-dihydro-4H-pyrazolo[3,4-c]pyridin-6-yl]methanone]  29.8 nM
10. COc1cccc2c(C(=O)N3CCc4c(nn(C)c4-c4cc(F)c(F)c(F)c4)[C@@H]3C)cnn12 [Example 387, [(7S)-2,7-Dimethyl-3-(3,4,5-trifluorophenyl)-5,7-dihydro-4H-pyrazolo[3,4-c]pyridin-6-yl]-(7-methoxypyrazolo[1,5-a]pyridin-3-yl)methanone]  26.4 nM
11. C[C@H]1c2nn(C)c(-c3cc(F)c(F)c(F)c3)c2CCN1C(=O)c1cn(C)c2ccc(F)cc12 [Example 356, [(7S)-2,7-Dimethyl-3-(3,4,5-trifluorophenyl)-5,7-dihydro-4H-pyrazolo[3,4-c]pyridin-6-yl]-(5-fluoro-1-methyl-indol-3-yl)methanone]  18.6 nM
12. C[C@H]1c2nn(C)c(-c3ccc4occc4c3)c2CCN1C(=O)c1ccc2ncccc2c1 [Example 533, [(7S)-3-(Benzofuran-5-yl)-2,7-dimethyl-5,7-dihydro-4H-pyrazolo[3,4-c]pyridin-6-yl]-(6-quinolyl)methanone]  17.4 nM
13. COc1cc(Cl)cc(-c2c3c(nn2C)[C@H](C)N(C(=O)c2ccc4ncccc4c2)CC3)c1 [Example 513, [(7S)-3-(3-Chloro-5-methoxy-phenyl)-2,7-dimethyl-5,7-dihydro-4H-pyrazolo[3,4-c]pyridin-6-yl]-(6-quinolyl)methanone]  10.5 nM
14. C[C@H]1c2nn(C)c(-c3cc(F)c(F)c(F)c3)c2CCN1C(=O)c1cnn(C)c1[C@H]1CC1F (mixture of isomers) [Example 339, ((S)-2,7-Dimethyl-3-(3,4,5-trifluorophenyl)-2,4,5,7-tetrahydro-6H-pyrazolo[3,4-c]pyridin-6-yl)(cis-5-(2-fluorocyclopropyl)-1-methyl-1H-pyrazol-4-yl)methanone]  3.01 nM

Same assay, conditions: 300 nM [Glycerol-1,3-3H]-oleyl glycerol, one hour incubation

In order of rising IC50:
1. C[C@H]1c2nn(C)c(-c3cc(Cl)cc(Cl)c3)c2CCN1C(=O)c1ccc2ncccc2c1 [Example 174, (S)-(3-(3,5-Dichlorophenyl)-2,7-dimethyl-2,4,5,7-tetrahydro-6H-pyrazolo[3,4-c]pyridin-6-yl)(quinolin-6-yl)methanone]  2.62 nM
2. C[C@H]1c2nn(C)c(-c3cc(Cl)cc(Cl)c3)c2CCN1C(=O)c1ccc2nccnc2c1 [Example 175, (S)-(3-(3,5-Dichlorophenyl)-2,7-dimethyl-2,4,5,7-tetrahydro-6H-pyrazolo[3,4-c]pyridin-6-yl)(quinoxalin-6-yl)methanone]  6.24 nM
3. Cc1nc(C(=O)N2CCc3c(nn(C)c3-c3cc(F)c(F)c(F)c3)[C@@H]2C)nn1-c1ccccc1 [Example 321, [(7S)-2,7-Dimethyl-3-(3,4,5-trifluorophenyl)-5,7-dihydro-4H-pyrazolo[3,4-c]pyridin-6-yl]-(5-methyl-1-phenyl-1,2,4-triazol-3-yl)methanone]  14.8 nM
4. C[C@H]1c2nn(C)c(-c3cc(F)cc(F)c3)c2CCN1C(=O)c1ccc(OCCF)cc1 [Example 138, (S)-(3-(3,5-Difluorophenyl)-2,7-dimethyl-2,4,5,7-tetrahydro-6H-pyrazolo[3,4-c]pyridin-6-yl)(4-(2-fluoroethoxy)phenyl)methanone]  39.5 nM
5. COc1nccc(C(=O)N2CCc3c(nn(C)c3-c3cc(F)c(F)c(F)c3)[C@@H]2C)c1F [Example 315, [(7S)-2,7-Dimethyl-3-(3,4,5-trifluorophenyl)-5,7-dihydro-4H-pyrazolo[3,4-c]pyridin-6-yl]-(3-fluoro-2-methoxy-4-pyridyl)methanone]  42.4 nM
6. Cn1nc2c(c1-c1ccccc1)CCN(C(=O)c1ccc3[nH]ccc3c1)C2 [Example 43, (1H-Indol-5-yl)(2-methyl-3-phenyl-2,4,5,7-tetrahydro-6H-pyrazolo[3,4-c]pyridin-6-yl)methanone]  64.7 nM
7. Cn1nc2c(c1-c1ccccc1)CCN(C(=O)c1c(F)ccc3[nH]ccc13)C2 [Example 47, (5-Fluoro-1H-indol-4-yl)(2-methyl-3-phenyl-2,4,5,7-tetrahydro-6H-pyrazolo[3,4-c]pyridin-6-yl)methanone]  70.2 nM
8. Cn1nc2c(c1-c1cccc(F)c1)CCN(C(=O)c1ccc3ncccc3c1)C2 [Example 100, (3-(3-Fluorophenyl)-2-methyl-2,4,5,7-tetrahydro-6H-pyrazolo[3,4-c]pyridin-6-yl)(quinolin-6-yl)methanone]  125 nM
9. Cn1nc2c(c1-c1ccccc1)CCN(C(=O)c1ccc3ncoc3c1)C2 [Example 56, Benzo[d]oxazol-6-yl(2-methyl-3-phenyl-2,4,5,7-tetrahydro-6H-pyrazolo[3,4-c]pyridin-6-yl)methanone]  293 nM
10. C[C@H]1c2nn(C)c(-c3cc(F)c(F)c(F)c3)c2CCN1C(=O)c1ccc(F)cc1-n1nccn1 [Example 196, (S)-(2,7-Dimethyl-3-(3,4,5-trifluorophenyl)-2,4,5,7-tetrahydro-6H-pyrazolo[3,4-c]pyridin-6-yl)(4-fluoro-2-(2H-1,2,3-triazol-2-yl)phenyl)methanone]  307 nM
11. CC(C)Oc1ccc(C(=O)N2CCc3c(nn(C)c3-c3cccc(Cl)c3)[C@@H]2C)cn1 [Example 121, (S)-(3-(3-Chlorophenyl)-2,7-dimethyl-2,4,5,7-tetrahydro-6H-pyrazolo[3,4-c]pyridin-6-yl)(6-isopropoxypyridin-3-yl)methanone]  330 nM
12. Cn1nc2c(c1-c1ccccc1)CCN(C(=O)c1cccc3ncsc13)C2 [Example 59, Benzo[d]thiazol-7-yl(2-methyl-3-phenyl-2,4,5,7-tetrahydro-6H-pyrazolo[3,4-c]pyridin-6-yl)methanone]  403 nM
13. C[C@H]1c2nn(C)c(-c3cc(F)c(F)c(F)c3)c2CCN1C(=O)c1ccccc1-n1cnc(C(F)(F)F)n1 [Example 282, [(7S)-2,7-Dimethyl-3-(3,4,5-trifluorophenyl)-5,7-dihydro-4H-pyrazolo[3,4-c]pyridin-6-yl]-[2-[3-(trifluoromethyl)-1,2,4-triazol-1-yl]phenyl]methanone]  1870 nM
14. CC1c2nn(C)c(-c3cn(C)c4ccccc34)c2CCN1C(=O)c1ccc2ncccc2c1 (centres unmarked) [Example 251, (2,7-Dimethyl-3-(1-methyl-1H-indol-3-yl)-2,4,5,7-tetrahydro-6H-pyrazolo[3,4-c]pyridin-6-yl)(quinolin-6-yl)methanone]  1890 nM
15. Cn1nc2c(c1-c1ccccc1)CCN(C(=O)c1ccn3nccc3c1)C2 [Example 73, (2-Methyl-3-phenyl-2,4,5,7-tetrahydro-6H-pyrazolo[3,4-c]pyridin-6-yl)(pyrazolo[1,5-a]pyridin-5-yl)methanone]  2500 nM
